Reference: patent US10822535B2, “Modified acid compositions as alternatives to conventional acids in the oil and gas industry” (Fluid Energy Group Ltd., priority 2017, dated 2020)
≈ marks a conversion by molar mass, not a printed value. Read-outs that look alike come from different tables or passages of the source.

What was measured:
[1] = Aerobic degradability in seawater (OECD 306)
Protocol: This study was commissioned to determine the aerobic degradability of the composition of monoethanolamine in seawater. […] The ThODNO3 value was determined from the chemical formula of the compound tested.
The OECD 306 guideline states the test material can be considered to be inhibitory to bacteria (at the concentration used) if the BOD of the mixture of reference and test materials is less than the sum of the BOD of the separate solutions of the two substances.

[2] = Acute lethal toxicity to marine copepods (ISO 14669); settings: Acartia tonsa (marine copepod), in vivo, other: aquatic phase (waterborne exposure), Water Accommodated Fraction, nominal concentrations
Protocol: A series of test were carried out to assess the environmental impact of monoethanoamine. A stock solution of 98-99% pure monoethanolamine was sent to be tested. The solution was diluted where necessary.
Determination of Acute Lethal Toxicity to Marine Copepods (Copepoda; Crustacea) (ISO 14669 (1999) Water Quality)
This study was commissioned to determine the aquatic phase toxicity of monoethanolamine to the marine copepod Acartia tonsa. The A. tonsa toxicity LC50 test was conducted in accordance with the study plan except for the following deviation and interferences but met all other relevant validity criteria. In the definitive test the temperature of the dilution water was below acceptable limits by a maximum of 0.7° C., the pH was below acceptable limits by a maximum of 0.01 units. These deviations were not expected to have an impact on the test as there was no control mortalities.

[3] = system: Corophium volutator; test: Sediment bioassay using an amphipod (OSPARCOM 2006 Part A); type: in vivo; settings: sediment phase, via dried sediment, nominal concentrations
Protocol: OSPARCOM Guidelines (2006) Part A. A Sediment Bioassay Using an Amphipod Corophium sp
This study was commissioned to determine the sediment phase toxicity of the composition of monoethanolamine to the intertidal amphipod Corophium volutator. […] The result is based on nominal concentrations and was calculated by Linear Interpolation within the CETIS suite of statistical analysis.

[4] = system: Skeletonema sp.; test: Marine algal growth inhibition test (ISO 10253); type: cell-based; settings: 72 h, WAFs, nominal concentrations, read-out: 72 h EC(r)50
Excerpt: ISO 10253 (2016) Water Quality—Marine Algal Growth Inhibition Test with Skeletonema Sp. This study was commissioned to determine the aquatic phase toxicity of the composition of monoethanolamine to the marine unicellular algae Skeletonema sp. […] It is the results from this test that has been reported.

[5] = system: Cyprinodon variegatus; test: Marine fish 96 h limit test (OSPAR); type: in vivo; settings: 96 h exposure at 199.7 mg/l (Water Accommodated Fraction)
Protocol: This study was commissioned to determine the aquatic (96 h limit test) toxicity of the composition of monoethanolamine to the marine fish Cyprinodon variegatus.
There were no interferences in this test. Test conditions of exposure were within formal and informal limits of acceptability except for the exception noted below. There were ten fish used in both the test and control tanks, with no control mortality observed.
The test concentration was derived from the test material EC/LC50 value between the most sensitive acute toxicity test species Skeletonema sp. and A. tonsa.

| SMILES | biodegradation [1] [%] | percentage inhibition of bacteria ([1]; in 28 days) [%] | LC50 at 48 h ([2]; 48 h LC50, definitive test, seawater) [µg/mL] | LC50 at 48 h ([2]; 48 h LC50, range-finding test) [µg/mL] | 10 day LC50 [3] | EC50 ([4]; definitive test) [µg/mL] | EC50 ([4]; range-finding test) [µg/mL] | mortality [5] | degradation of reference material ([1]; first 14 days, seawater) |
| --- | --- | --- | --- | --- | --- | --- | --- | --- | --- |
| NCCO [monoethanolamine] | 71 | 12 | 434 (≈ 7.1 mM) | 550 (≈ 9 mM) | 6,660 mg/kg | 200 (≈ 3.27 mM) | 509 (≈ 8.33 mM) | no mortalities |  |
| O=C([O-])c1ccccc1.[Na+] [sodium benzoate, reference compound] |  |  |  |  |  |  |  |  | more than 60% |
